Test results published in US8742110B2, “Spiroxazolidinone compounds” (Merck Sharp & Dohme Corp., priority 2010, dated 2014).
Where a name gives a salt, the structure may show the parent alone.

Molecular target: SSTR5 (Homo sapiens (Human), UniProt P35346)
Assay: SSTR5 binding assay
Details: CHO-K1 membranes expressing cloned human SSTR5
How it was run: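 Competition binding on membranes from CHO-K1 cells stably expressing cloned human receptor, using radiolabeled somatostatin in 50 mM Tris-HCl pH 7.8 with EGTA, MgCl2 and protease inhibitors. Unlabeled compounds tested from 0.01 nM to 10,000 nM.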

Chain of SSTR5 (P35346 whole entry): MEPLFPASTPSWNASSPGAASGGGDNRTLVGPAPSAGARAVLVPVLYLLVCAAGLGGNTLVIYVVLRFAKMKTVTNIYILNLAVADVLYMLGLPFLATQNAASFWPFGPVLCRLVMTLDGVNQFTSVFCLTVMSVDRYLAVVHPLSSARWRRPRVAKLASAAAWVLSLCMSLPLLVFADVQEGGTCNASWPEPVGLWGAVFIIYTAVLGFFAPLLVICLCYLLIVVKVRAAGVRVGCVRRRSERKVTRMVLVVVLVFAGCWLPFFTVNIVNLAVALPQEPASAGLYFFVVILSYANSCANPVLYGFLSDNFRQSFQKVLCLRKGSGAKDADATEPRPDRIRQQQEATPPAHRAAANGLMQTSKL

Row | SMILES | IC50
1 | CC1(C)CC(C)(C)c2cc(CN3CCC4(CC3)CN(c3ccc(C(=O)O)cc3)C(=O)O4)ccc2O1 [Example 5-11, 4-{2-Oxo-8-[(2,2,4,4-tetramethyl-3,4-dihydro-2H-chromen-6-yl)methyl]-1-oxa-3,8-diazaspiro[4.5]dec-3-yl}benzoic acid, TFA salt] | 14 nM
2 | COc1c(-c2cn(C(C)C)nc2CN2CCC3(CC2)CN(c2ccc(C(=O)O)cc2)C(=O)O3)ccc(F)c1F [Example 2-5, 4-(8-{[4-(3,4-Difluoro-2-methoxyphenyl)-1-(propan-2-yl)-1H-pyrazol-3-yl]methyl}-2-oxo-1-oxa-3,8-diazaspiro[4.5]dec-3-yl)benzoic acid, TFA salt] | 191 nM
3 | Cc1nc(-c2ccccc2)c(CN2CCC3(CC2)CN(c2ccc(C(=O)O)cc2)C(=O)O3)s1 [Example 6-33, 4-{8-[(2-Methyl-4-phenyl-1,3-thiazol-5-yl)methyl]-2-oxo-1-oxa-3,8-diazaspiro[4.5]dec-3-yl}benzoic acid, TFA salt] | 153 nM
4 | CC(C)(C)Cn1cc(CN2CCC3(CC2)CN(c2ccc(C(=O)O)cc2)C(=O)O3)c(-c2ccc(F)c(Cl)c2)n1 [Example 1-38, 4-(8-{[3-(3-Chloro-4-fluorophenyl)-1-(2,2-dimethylpropyl)-1H-pyrazol-4-yl]methyl}-2-oxo-1-oxa-3,8-diazaspiro[4.5]dec-3-yl)benzoic acid, TFA salt] | 5.29 nM
5 | CCOc1cc(CN2CCC3(CC2)CN(c2ccc(C(=O)O)c(OC)c2)C(=O)O3)c(-c2ccc(F)c(F)c2F)cc1C [Example 4-18, 4-{8-[(4-Ethoxy-2′,3′,4′-trifluoro-5-methylbiphenyl-2-yl)methyl]-2-oxo-1-oxa-3,8-diazaspiro[4.5]dec-3-yl}-2-methoxybenzoic acid, TFA salt] | 0.228 nM
6 | CC(C)n1nc(CN2CCC3(CC2)CN(c2ccc(C(=O)O)cc2)C(=O)O3)c2ccc(C(N)=O)cc21 [Example 6-8, 4-(8-{[6-Carbamoyl-1-(propan-2-yl)-1H-indazol-3-yl]methyl}-2-oxo-1-oxa-3,8-diazaspiro[4.5]dec-3-yl)benzoic acid, TFA salt] | 1200 nM
7 | CCCn1nc(CN2CCC3(CC2)CN(c2ccc(C(=O)O)cc2)C(=O)O3)c2ccc(C#N)cc21 [Example 6-7, 4-{8-[(6-Cyano-1-propyl-1H-indazol-3-yl)methyl]-2-oxo-1-oxa-3,8-diazaspiro[4.5]dec-3-yl}benzoic acid, TFA salt] | 1200 nM
8 | CCOc1cc(CN2CCC3(CC2)CN(c2ccccc2C(=O)O)C(=O)O3)cc(OCC)c1-c1ccc(F)cc1 [Example 3-3, 2-{8-[(2,6-Diethoxy-4′-fluorobiphenyl-4-yl)methyl]-2-oxo-1-oxa-3,8-diazaspiro[4.5]dec-3-yl}benzoic acid, TFA salt] | 229 nM
9 | CCOc1cc(CN2CCC3(CC2)CN(c2ccc(C(=O)O)c(OC)c2)C(=O)O3)cc(OCC)c1-c1ccc(F)cc1 [Example 3-20, 4-{8-[(2,6-Diethoxy-4′-fluorobiphenyl-4-yl)methyl]-2-oxo-1-oxa-3,8-diazaspiro[4.5]dec-3-yl}-2-methoxybenzoic acid, TFA salt] | 0.129 nM
10 | O=C(O)c1ccc(N2CC3(CCN(Cc4cn(C5CCCCC5)nc4-c4cccc(C(F)(F)F)c4)CC3)OC2=O)cc1 [Example 1-5, 4-[8-({1-Cyclohexyl-3-[3-(trifluoromethyl)phenyl]-1H-pyrazol-4-yl}methyl)-2-oxo-1-oxa-3,8-diazaspiro[4.5]dec-3-yl]benzoic acid, TFA salt] | 1.53 nM
11 | COc1ccc2c(CN3CCC4(CC3)CN(c3ccc(C(=O)O)cc3)C(=O)O4)nn(C3CC3)c2c1 [Example 6-12, 4-{8-[(1-Cyclopropyl-6-methoxy-1H-indazol-3-yl)methyl]-2-oxo-1-oxa-3,8-diazaspiro[4.5]dec-3-yl}benzoic acid, TFA salt] | 216 nM
12 | O=C(O)c1ccc(N2CC3(CCN(Cc4cn(-c5ccc6ccccc6c5)nc4-c4ccc(F)c(F)c4F)CC3)OC2=O)cc1 [Example 1-26, 4-(8-{[1-(Naphthalen-2-yl)-3-(2,3,4-trifluorophenyl)-1H-pyrazol-4-yl]methyl}-2-oxo-1-oxa-3,8-diazaspiro[4.5]dec-3-yl)benzoic acid, TFA salt] | 2.72 nM
13 | O=C(O)c1ccc(N2CC3(CCN(Cc4nc(-c5ccccc5)oc4-c4cc(F)c(F)cc4F)CC3)OC2=O)cc1 [Example 6-30, 4-(2-Oxo-8-{[2-phenyl-5-(2,4,5-trifluorophenyl)-1,3-oxazol-4-yl]methyl}-1-oxa-3,8-diazaspiro[4.5]dec-3-yl)benzoic acid, TFA salt] | 89.9 nM
14 | COc1ccc(-c2nn(C3CC3)cc2CN2CCC3(CC2)CN(c2ccc(C(=O)O)cc2)C(=O)O3)cc1 [Example 1-4, 4-(8-{[1-Cyclopropyl-3-(4-methoxyphenyl)-1,1-pyrazol-4-yl]methyl}-2-oxo-1-oxa-3,8-diazaspiro[4.5]dec-3-yl)benzoic acid, TFA salt] | 4.59 nM
15 | CC(C)(C)n1cc(CN2CCC3(CC2)CN(c2ccc(C(=O)O)cc2)C(=O)O3)c(-c2cc(F)c(Cl)cc2F)n1 [Example 1-31, 4-(8-{[1-tert-Butyl-3-(4-chloro-2,5-difluorophenyl)-1H-pyrazol-4-yl]methyl}-2-oxo-1-oxa-3,8-diazaspiro[4.5]dec-3-yl)benzoic acid, TFA salt] | 2.09 nM

More lines, now with the values ahead:

Row | IC50 | SMILES
16 | 0.49 nM | CCOc1ccc(-c2ccc(F)cc2F)c(CN2CCC3(CC2)CN(c2ccc(C(=O)O)cc2)C(=O)O3)c1 [Example 4-3, 4-{8-[(4-Ethoxy-2′,4′-difluorobiphenyl-2-yl)methyl]-2-oxo-1-oxa-3,8-diazaspiro[4.5]dec-3-yl}benzoic acid, TFA salt]
17 | 0.409 nM | CCOc1cc(CN2CCC3(CC2)CN(c2ccc(C(=O)O)cc2)C(=O)O3)c(-c2ccc(F)c(F)c2F)cc1C [Example 4-7, 4-{8-[(4-Ethoxy-2′,3′,4′-trifluoro-5-methylbiphenyl-2-yl)methyl]-2-oxo-1-oxa-3,8-diazaspiro[4.5]dec-3-yl}benzoic acid, TFA salt]
18 | 4320 nM | Cn1cc(-c2cc(F)c(F)cc2F)c(CN2CCC3(CC2)CN(c2ccc(C(=O)O)cc2)C(=O)O3)n1 [Example 2-2, 4-(8-{[1-Methyl-4-(2,4,5-trifluorophenyl)-1H-pyrazol-3-yl]methyl}-2-oxo-1-oxa-3,8-diazaspiro[4.5]dec-3-yl)benzoic acid, TFA salt]
19 | 0.704 nM | CCOc1cc(CN2CCC3(CC2)CN(c2ccc(C(=O)O)cc2)C(=O)O3)cc2c(OC)cccc12 [Example 5-2, 4-{8-[(4-Ethoxy-8-methoxynaphthalen-2-yl)methyl]-2-oxo-1-oxa-3,8-diazaspiro[4.5]dec-3-yl}benzoic acid, TFA salt]
20 | 0.793 nM | CCOc1ccc(-c2cc(F)c(F)cc2F)c(CN2CCC3(CC2)CN(c2ccc(C(=O)O)cc2)C(=O)O3)c1 [Example 4-1, 4-{8-[(4-Ethoxy-2′,4′,5′-trifluorobiphenyl-2-yl)methyl]-2-oxo-1-oxa-3,8-diazaspiro[4.5]dec-3-yl}benzoic acid, TFA salt]
21 | 2950 nM | Cn1cc(-c2ccc(F)c(F)c2F)c(CN2CCC3(CC2)CN(c2ccc(C(=O)O)cc2)C(=O)O3)n1 [Example 2-1, 4-(8-{[1-Methyl-4-(2,3,4-trifluorophenyl)-1H-pyrazol-3-yl]methyl}-2-oxo-1-oxa-3,8-diazaspiro[4.5]dec-3-yl)benzoic acid, TFA salt]
